“Also recorded” adds a separate entry of the source.

Data set [1] has as its system HCT116 cells. In words: Muse cell viability assay (percentage of dead cells). Particulars: for effect on STS + vitamin C cytotoxicity: HCT116, STS medium supplemented with transferrin, vitamin C 350 μM.
Another data set concerns ROS in HCT116 cells. In words: CellROX reactive oxygen species measurement. In kind it is cell-based, human. To be noted: HCT116, GSH one hour prior to vitamin C 1 mM. How it is done:
Intracellular reactive-oxygen species (ROS) were measured using the CellROX oxidative stress reagents (Life Technologies, Cat. #: 10422). CellROX fluorogenic probe is designed to measure reactive-oxygen species (ROS) in live cells. […] For ROS measurement, cells were seeded in 10 cm petri dish (4×10^5 cells in CTR medium). After 24 hours cells were rinsed twice in 1×PBS and CTR or STS medium was added. 24 hours later, cells were trypsinized, resuspended in their respective media, and treated with 1 mM sodium ascorbate and 1 μM CellROX deep red reagent in the dark, for 30 minutes at 37° C. and 5% CO2. Then, fluorescence was immediately analyzed by flow cytometry (Attune NxT flow cytometer). Data were processed by Kaluza analysis software (Beckman coulter, version 2.0). Data were expressed as fold change of the median fluorescent intensity (MFI) of each treated sample versus the MFI of control sample.

Data set [2] concerns KRAS mutant CRC cells (HCT116, DLD1, CT26.WT). To be noted: for effect on cell death induction by STS and vitamin C cotreatment: STS condition, GSH 5 mM or NAC 5 mM co-treated with vitamin C 350 μM, 24 hours.
Data set [3] concerns HCT116 cells. Briefly: MTT assay. Format: cell-based, human. Particulars: HCT116, 24 hours-STS before and during oxaliplatin 40 μM 24 hours. From the text:
The MTT [3-(4,5-Dimethylthiazol-2-yl)-2,5-diphenyltetrazolium bromide] assay is a quantitative colorimetric assay used to determine cell viability (Mosmann, 1983). MTT is characterized by a yellow colour, and upon its reduction to formazan by mitochondrial dehydrogenases, turns into a purple molecule, which has an absorbance peak at 570 nm. The absorbance is proportional to the amount of formazan produced, thus giving a measure of living cells, since the reaction only occur in living and metabolically active cells (Mosmann, 1983).
To evaluate viability, cells were seeded into a 96-well plate (2000 cells per well) in CTR medium. 24 hours later, cells were rinsed twice in 1×PBS, and CTR or STS medium was added. […] At the end of the experiment, medium was removed and cells were incubated with 100 μl of MTT (Sigma-Aldrich, Cat. #: M2128) solution (0.5 mg/ml, dissolved in medium) per well, for 3 hours at 37° C. in the dark. Next, 100 μl of lysis buffer (10% SDS, HCl 0.01M) were added to each well to dissolve formazan crystals and plates were incubated overnight at 37° C. Absorbance was recorded at the wavelength of 570 nm using a microplate reader (Infinite M200 TECAN). The absorbance values of media background were subtracted from the absorbance of each sample. No-treated samples were used as reference values (100% survival) to normalize the absorbance of treated samples.
(In general: Tetrazolium assays rely on reduction of a dye to a coloured formazan, in cell work by metabolically active cells.)

Data set [4] deals with HCT116 cells. Briefly: Erythrosin B exclusion assay. Format: cell-based, human. To be noted: HCT116, 24 hours-STS before and during oxaliplatin 40 μM 24 hours. On the procedure:
Erythrosin B is a vital dye that is impermeable to biological membranes, thus staining only unviable cells with disintegrated membranes (Kim et al., 2016).
The next day, cells were rinsed twice in 1×PBS and CTR or STS medium was added. […] Cell death was measured by erythrosine B exclusion assay. Cell suspension was diluted 1:1 with erythrosin B 0.1% in PBS (Sigma-Aldrich, Cat. #: 200964), then cells were counted in a Bürker chamber, and percentage of cell death was calculated as the number of Erythrosin B-positive cells with respect to the total number of cells.

Another data set has as its system HO-1. Briefly: HO-1 expression in HCT116 (qPCR, western blot). In kind it is cell-based, human. To be noted: HCT116, CTR and STS, hemin 20 μM 12 hours. On the procedure:
Cells were washed twice in ice-cold PBS and lysates were prepared in RIPA lysis buffer (50 mM Tris HCl pH 7.4, 150 mM NaCl, 1% NP-40, 0.25% deoxycholic acid, 1 mM EDTA) supplemented with protease and phosphatase inhibitors (protease inhibitor cocktail set III EDTA-free, Calbiochem, Cat. #: S39134; PhosStop, Roche), Samples were sonicated (bioruptor plus, diogenode) and centrifuged at 16.1 g for 30 minutes at 4° C. Tumor tissues were collected and snap frozen in liquid nitrogen immediately after mice were sacrificed, and stored in -80° C. until use. […] Protein concentrations were determined by BCA assay (Thermo Fisher Scientific, Cat. #: 23225). Proteins were diluted in 1× Laemmli sample buffer, boiled at 95° C. for 5 minutes and 30 μg of total proteins were separated by using SDS-PAGE and analyzed by western blotting by standard procedures. […] Membranes were incubated overnight at 4° C. with gentle shaking with the following primary antibodies: […] ADI-SPA894), FTH (1:1000, Cell Signaling, Cat. #: 3998), AMPK (1:1000, Cell Signaling, Cat. #: 2532), phospho-[…] […] Bands intensity was quantified with NIH Image J software (version 1.48v). […] Resulting cDNA (1/20 v/v) was analyzed by real-time polymerase reaction (qRT-PCR) using TaqMan MBG probes with FAM reporter dyes. […]

A further data set deals with FTH. Briefly: FTH protein expression in cells (western blot). In kind it is cell-based, human and murine. Particulars: HCT116, CTR and STS, hemin 20 μM 12 hours. On the procedure:
Cells were washed twice in ice-cold PBS and lysates were prepared in RIPA lysis buffer (50 mM Tris HCl pH 7.4, 150 mM NaCl, 1% NP-40, 0.25% deoxycholic acid, 1 mM EDTA) supplemented with protease and phosphatase inhibitors (protease inhibitor cocktail set III EDTA-free, Calbiochem, Cat. #: S39134; PhosStop, Roche), Samples were sonicated (bioruptor plus, diogenode) and centrifuged at 16.1 g for 30 minutes at 4° C. Tumor tissues were collected and snap frozen in liquid nitrogen immediately after mice were sacrificed, and stored in -80° C. until use. […] Protein concentrations were determined by BCA assay (Thermo Fisher Scientific, Cat. #: 23225). Proteins were diluted in 1× Laemmli sample buffer, boiled at 95° C. for 5 minutes and 30 μg of total proteins were separated by using SDS-PAGE and analyzed by western blotting by standard procedures. […] Membranes were incubated overnight at 4° C. with gentle shaking with the following primary antibodies: […] ADI-SPA894), FTH (1:1000, Cell Signaling, Cat. #: 3998), AMPK (1:1000, Cell Signaling, Cat. #: 2532), phospho-[…] AMPK (1:1000, Cell Signaling, Cat. #: 2535), eIF2a (1:1000, Cell signaling, Cat. #: 5324), phospho […] eIF2a (1:1000, Cell signaling, Cat. #: 3597), AKT (1:1000, Cell Signaling, Cat. #: 9272), phospho-[…] […] Bands intensity was quantified with NIH Image J software (version 1.48v).
On the technique in general: A western blot detects proteins with antibodies after separation by electrophoresis.

Regarding `CC(=O)N(O)CCCCCNC(=O)CCC(=O)N(O)CCCCCNC(=O)CCC(=O)N(O)CCCCCN` [DFO, desferrioxamine], the “effect on vitamin C-induced cytotoxicity” value with HCT116 cells [1] (HCT116, STS, DFO 500 μM pre-treatment, cells washed before vitamin C 350 μM) is reported as “rescued vitamin C-induced cell cytotoxicity”.

Consider `N[C@@H](CCC(=O)N[C@@H](CS)C(=O)NCC(=O)O)C(=O)O` [GSH, glutathione], for which, in the data set with ROS in HCT116 cells, the “effect on increase in ROS mediated by STS and STS+vitamin C” value is “fully reversed the increase in ROS”. Also, in data set [2], the “effect on cell death induction by STS and vitamin C cotreatment” value is given as “able to revert the massive cell death induction”.

For `CC(=O)N[C@@H](CS)C(=O)O` [NAC, N-acetyl cysteine], the “effect on cell death induction by STS and vitamin C cotreatment” value in data set [2] is given as “able to revert the massive cell death induction”.

`C=CC1=C(C)c2cc3[n-]c(cc4nc(cc5[n-]c(cc1n2)c(C)c5C=C)C(C)=C4CCC(=O)O)c(CCC(=O)O)c3C.[Zn+2]` [ZnPP, zinc protoporphyrin]: the “susceptibility to vitamin C toxicity” value in data set [2] (control medium, ZnPP 20 μM 3 hours before vitamin C 700 μM 24 hours) is on record as “more susceptible to vitamin C toxicity”.

Take `O=C1[O][Pt]2([NH][C@@H]3CCCC[C@H]3[NH]2)[O]C1=O` [oxaliplatin]: the “percentage of metabolically active cells (MTT)” value with HCT116 cells [3] is “significantly decrease the percentage of metabolically active cells”. The “percentage of cell death” value in the data set on HCT116 cells [4] is recorded as “increase the percentage of cell death”.

Turning to MnTMPyP, the “effect on cell death upon STS + vitamin C” value in the data set on HCT116 cells [1] (HCT116, STS, MnTMPyP 50 μM before vitamin C 350 μM 24 hours) is recorded as “inhibited cell death upon combinatorial treatment”.

In the case of apo-transferrin: iron-free transferrin, the “effect on STS + vitamin C cytotoxicity” value in the data set on HCT116 cells [1] was “not”.

Turning to hemin, in the data set on HO-1, the “HO-1 protein expression level” value was “increases”. Besides, in the data set with FTH, the “FTH protein expression level” value is given as “increases”. For the same molecule, the “effect on cancer cell death induced by vitamin C alone or with STS” value in data set [2] (hemin 20 μM 3 hours before vitamin C 350 μM, CTR or STS) is “able to reverse cancer cell death”.

On to “holo-transferrin: Iron bound-transferrin”, for which, in the data set on HCT116 cells [1], the “effect on STS + vitamin C cytotoxicity” value was “able to rescue the observed cytotoxicity; also recorded: reversed STS+vitamin C-mediated toxicity”.

B1: catalase: Catalase from bovine liver, membrane-impermeable ROS scavenger decomposing hydrogen peroxide (protein, UniProt P00432 2-527, looked up)
Catalase: ADNRDPASDQMKHWKEQRAAQKPDVLTTGGGNPVGDKLNSLTVGPRGPLLVQDVVFTDEMAHFDRERIPERVVHAKGAGAFGYFEVTHDITRYSKAKVFEHIGKRTPIAVRFSTVAGESGSADTVRDPRGFAVKFYTEDGNWDLVGNNTPIFFIRDALLFPSFIHSQKRNPQTHLKDPDMVWDFWSLRPESLHQVSFLFSDRGIPDGHRHMNGYGSHTFKLVNANGEAVYCKFHYKTDQGIKNLSVEDAARLAHEDPDYGLRDLFNAIATGNYPSWTLYIQVMTFSEAEIFPFNPFDLTKVWPHGDYPLIPVGKLVLNRNPVNYFAEVEQLAFDPSNMPPGIEPSPDKMLQGRLFAYPDTHRHRLGPNYLQIPVNCPYRARVANYQRDGPMCMMDNQGGAPNYYPNSFSAPEHQPSALEHRTHFSGDVQRFNSANDDNVTQVRTFYLKVLNEEQRKRLCENIAGHLKDAQLFIQKKAVKNFSDVHPEYGSRIQALLDKYNEEKPKNAVHTYVQHGSHLSAREKANL
Turning to B1, the “effect on STS-mediated sensitization to vitamin C” value in the data set with HCT116 cells [1] (HCT116, STS, catalase 50 U/ml prior to vitamin C 350 μM 24 hours) is on record as “able to revert STS-mediated sensitization to vitamin C”.

Source of the values: US20210352950A1 (priority 2019, published 2021).
